Experiment: xn = mol fraction of the nth substance listed
Details: Liquid, Vibrating tube method

CCCCCCCCCCCC [dodecane] + CCCCCCCCCC
Details | mass density [kg/m3]
283.29 K, 100 kPa, x2 = 0 | 756
283.29 K, 1000 kPa, x2 = 0 | 757
283.29 K, 3000 kPa, x2 = 0 | 758
283.3 K, 5000 kPa, x2 = 0 | 760
283.3 K, 10000 kPa, x2 = 0 | 763
283.3 K, 30000 kPa, x2 = 0 | 775
283.3 K, 40000 kPa, x2 = 0 | 780
283.3 K, 50000 kPa, x2 = 0 | 785
283.3 K, 60000 kPa, x2 = 0 | 790
283.31 K, 20000 kPa, x2 = 0 | 769
283.31 K, 70000 kPa, x2 = 0 | 795
283.32 K, 80000 kPa, x2 = 0 | 799
283.32 K, 90000 kPa, x2 = 0 | 803
283.46 K, 100 kPa, x2 = 0.4436 | 748
283.47 K, 1000 kPa, x2 = 0.4436 | 749
283.47 K, 5000 kPa, x2 = 0.4436 | 752
283.48 K, 10000 kPa, x2 = 0.4436 | 755
283.48 K, 20000 kPa, x2 = 0.4436 | 762
283.48 K, 40000 kPa, x2 = 0.4436 | 773
283.49 K, 30000 kPa, x2 = 0.4436 | 767
283.49 K, 60000 kPa, x2 = 0.4436 | 783
283.49 K, 80000 kPa, x2 = 0.4436 | 792
283.49 K, 100000 kPa, x2 = 0.4436 | 801
283.52 K, 100 kPa, x2 = 0.2297 | 752
283.52 K, 1000 kPa, x2 = 0.2297 | 753
283.52 K, 5000 kPa, x2 = 0.2297 | 755
283.52 K, 10000 kPa, x2 = 0.2297 | 759
283.52 K, 20000 kPa, x2 = 0.2297 | 765
283.52 K, 30000 kPa, x2 = 0.2297 | 771
283.52 K, 40000 kPa, x2 = 0.2297 | 776
283.53 K, 60000 kPa, x2 = 0.2297 | 786
283.53 K, 80000 kPa, x2 = 0.2297 | 796
283.54 K, 100000 kPa, x2 = 0.2297 | 804
283.57 K, 1000 kPa, x2 = 0.7841 | 743
283.58 K, 100 kPa, x2 = 0.7841 | 742
283.59 K, 5000 kPa, x2 = 0.7841 | 745
283.6 K, 10000 kPa, x2 = 0.7841 | 749
283.61 K, 100 kPa, x2 = 0.6433 | 745
283.61 K, 1000 kPa, x2 = 0.6433 | 745
283.61 K, 20000 kPa, x2 = 0.7841 | 755
283.61 K, 30000 kPa, x2 = 0.7841 | 761
283.61 K, 40000 kPa, x2 = 0.7841 | 767
283.61 K, 60000 kPa, x2 = 0.7841 | 777
283.61 K, 80000 kPa, x2 = 0.7841 | 787
283.61 K, 100000 kPa, x2 = 0.7841 | 795
283.62 K, 5000 kPa, x2 = 0.6433 | 748
283.62 K, 10000 kPa, x2 = 0.6433 | 752
283.62 K, 20000 kPa, x2 = 0.6433 | 758
283.62 K, 30000 kPa, x2 = 0.6433 | 764
283.62 K, 40000 kPa, x2 = 0.6433 | 770
283.62 K, 60000 kPa, x2 = 0.6433 | 780
283.62 K, 80000 kPa, x2 = 0.6433 | 789
283.62 K, 100000 kPa, x2 = 0.6433 | 798
293.17 K, 100 kPa, x2 = 0 | 749
293.18 K, 1000 kPa, x2 = 0 | 750
293.19 K, 5000 kPa, x2 = 0 | 753
293.19 K, 10000 kPa, x2 = 0 | 756
293.19 K, 20000 kPa, x2 = 0 | 763
293.19 K, 30000 kPa, x2 = 0 | 769
293.19 K, 40000 kPa, x2 = 0 | 774
293.19 K, 50000 kPa, x2 = 0 | 780
293.19 K, 70000 kPa, x2 = 0 | 789
293.19 K, 80000 kPa, x2 = 0 | 794
293.19 K, 90000 kPa, x2 = 0 | 798
293.19 K, 100000 kPa, x2 = 0 | 802
293.2 K, 60000 kPa, x2 = 0 | 785
293.43 K, 10000 kPa, x2 = 0.4436 | 749
293.43 K, 20000 kPa, x2 = 0.4436 | 755
293.43 K, 30000 kPa, x2 = 0.2297 | 765
293.43 K, 30000 kPa, x2 = 0.4436 | 761
293.43 K, 40000 kPa, x2 = 0.2297 | 771
293.43 K, 40000 kPa, x2 = 0.4436 | 767
293.43 K, 60000 kPa, x2 = 0.2297 | 781
293.43 K, 60000 kPa, x2 = 0.4436 | 778
293.43 K, 80000 kPa, x2 = 0.4436 | 787
293.43 K, 100000 kPa, x2 = 0.4436 | 796
293.44 K, 100 kPa, x2 = 0.4436 | 741
293.44 K, 1000 kPa, x2 = 0.4436 | 742
293.44 K, 5000 kPa, x2 = 0.4436 | 745
293.44 K, 20000 kPa, x2 = 0.2297 | 759
293.44 K, 80000 kPa, x2 = 0.2297 | 790
293.44 K, 100000 kPa, x2 = 0.2297 | 799
293.45 K, 100 kPa, x2 = 0.2297 | 745
293.45 K, 1000 kPa, x2 = 0.2297 | 746
293.45 K, 5000 kPa, x2 = 0.2297 | 749
293.45 K, 10000 kPa, x2 = 0.2297 | 752
293.51 K, 100000 kPa, x2 = 0.6433 | 793
293.52 K, 100 kPa, x2 = 0.6433 | 738
293.52 K, 1000 kPa, x2 = 0.6433 | 738
293.52 K, 5000 kPa, x2 = 0.6433 | 741
293.52 K, 10000 kPa, x2 = 0.6433 | 745
293.52 K, 20000 kPa, x2 = 0.6433 | 752
293.52 K, 30000 kPa, x2 = 0.6433 | 758
293.52 K, 40000 kPa, x2 = 0.6433 | 764
293.52 K, 60000 kPa, x2 = 0.6433 | 774
293.52 K, 80000 kPa, x2 = 0.6433 | 784
293.53 K, 60000 kPa, x2 = 0.7841 | 772
293.53 K, 80000 kPa, x2 = 0.7841 | 781
293.53 K, 100000 kPa, x2 = 0.7841 | 790
293.54 K, 100 kPa, x2 = 0.7841 | 735
293.54 K, 1000 kPa, x2 = 0.7841 | 735
293.54 K, 5000 kPa, x2 = 0.7841 | 738
293.54 K, 10000 kPa, x2 = 0.7841 | 742
293.54 K, 20000 kPa, x2 = 0.7841 | 749
293.54 K, 30000 kPa, x2 = 0.7841 | 755
293.54 K, 40000 kPa, x2 = 0.7841 | 761
303.04 K, 30000 kPa, x2 = 0 | 762
303.04 K, 100000 kPa, x2 = 0 | 797
303.05 K, 100 kPa, x2 = 0 | 742
303.05 K, 1000 kPa, x2 = 0 | 743
303.05 K, 5000 kPa, x2 = 0 | 746
303.05 K, 20000 kPa, x2 = 0 | 756
303.05 K, 50000 kPa, x2 = 0 | 774
303.05 K, 60000 kPa, x2 = 0 | 779
303.05 K, 70000 kPa, x2 = 0 | 784
303.05 K, 80000 kPa, x2 = 0 | 789
303.05 K, 90000 kPa, x2 = 0 | 793
303.06 K, 10000 kPa, x2 = 0 | 749
303.06 K, 40000 kPa, x2 = 0 | 768
